Measured values published in PubChem BioAssay (NCI).
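Each compound was tested at five concentrations against cells in 96-well plates for 48 hours. TGI is the concentration that stops growth completely.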

Columns and labels:
Assay in all cases: NCI-60 cell line screen, 48 h
NCI-H460 lung = test system: NCI-H460 lung
MDA-MB-435 = test system: MDA-MB-435
BT-549 breast = test system: BT-549 breast
HT29 colon = test system: HT29 colon
LOX IMVI melanoma = test system: LOX IMVI melanoma
RPMI-8226 leukemia = test system: RPMI-8226 leukemia
KM12 colon = test system: KM12 colon
M14 melanoma = test system: M14 melanoma
MDA-N = test system: MDA-N
OVCAR-8 ovarian = test system: OVCAR-8 ovarian
SF-295 CNS = test system: SF-295 CNS
SNB-75 CNS = test system: SNB-75 CNS
HOP-92 NSCLC = test system: HOP-92 NSCLC
TK-10 renal = test system: TK-10 renal
NCI-H23 lung = test system: NCI-H23 lung
HS 578T breast = test system: HS 578T breast
SNB-19 CNS = test system: SNB-19 CNS
SN12C renal = test system: SN12C renal
RXF 393 renal = test system: RXF 393 renal
SK-OV-3 ovarian = test system: SK-OV-3 ovarian
HOP-62 NSCLC = test system: HOP-62 NSCLC
T-47D breast = test system: T-47D breast
CCRF-CEM leukemia = test system: CCRF-CEM leukemia
IGROV1 ovarian = test system: IGROV1 ovarian
786-0 renal = test system: 786-0 renal
NCI/ADR-RES ovarian = test system: NCI/ADR-RES ovarian
UACC-62 melanoma = test system: UACC-62 melanoma
NCI-H226 lung = test system: NCI-H226 lung
MDA-MB-231 breast = test system: MDA-MB-231 breast
OVCAR-3 ovarian = test system: OVCAR-3 ovarian
OVCAR-5 ovarian = test system: OVCAR-5 ovarian
SF-268 CNS = test system: SF-268 CNS
A498 renal = test system: A498 renal
HCT-116 colon = test system: HCT-116 colon
MCF7 breast = test system: MCF7 breast
HL-60(TB) leukemia = test system: HL-60(TB) leukemia
HCC-2998 colon = test system: HCC-2998 colon
OVCAR-4 ovarian = test system: OVCAR-4 ovarian
DU-145 prostate = test system: DU-145 prostate
A549 NSCLC = test system: A549 NSCLC
K-562 leukemia = test system: K-562 leukemia
SK-MEL-28 melanoma = test system: SK-MEL-28 melanoma
UO-31 renal = test system: UO-31 renal
COLO 205 colon = test system: COLO 205 colon
NCI-H522 lung = test system: NCI-H522 lung
PC-3 prostate = test system: PC-3 prostate
SK-MEL-2 melanoma = test system: SK-MEL-2 melanoma
UACC-257 melanoma = test system: UACC-257 melanoma
CAKI-1 renal = test system: CAKI-1 renal
ACHN renal = test system: ACHN renal
MOLT-4 leukemia = test system: MOLT-4 leukemia
SK-MEL-5 melanoma = test system: SK-MEL-5 melanoma
EKVX NSCLC = test system: EKVX NSCLC
SW-620 colon = test system: SW-620 colon
U251 CNS = test system: U251 CNS
HCT-15 colon = test system: HCT-15 colon
MALME-3M melanoma = test system: MALME-3M melanoma
SF-539 CNS = test system: SF-539 CNS

COc1ccc(N2C(=O)C3c4[nH]c5ccc(OC)cc5c4C4CCC(C(C)C)CC4C3C2=O)cc1 (stereo not given)
TGI (NCI-H460 lung): > 100 µM | TGI (MDA-MB-435): > 100 µM | TGI (BT-549 breast): > 100 µM | TGI (HT29 colon): > 100 µM | TGI (LOX IMVI melanoma): > 100 µM | TGI (RPMI-8226 leukemia): > 100 µM | TGI (KM12 colon): > 100 µM | TGI (M14 melanoma): > 100 µM | TGI (MDA-N): > 100 µM | TGI (OVCAR-8 ovarian): > 100 µM | TGI (SF-295 CNS): > 100 µM | TGI (SNB-75 CNS): > 65.5 µM | TGI (HOP-92 NSCLC): > 100 µM | TGI (TK-10 renal): > 100 µM | TGI (NCI-H23 lung): > 100 µM | TGI (HS 578T breast): > 84.4 µM | TGI (SNB-19 CNS): 99.4 µM | TGI (SN12C renal): > 100 µM | TGI (RXF 393 renal): > 100 µM | TGI (SK-OV-3 ovarian): > 100 µM | TGI (HOP-62 NSCLC): 54.8 µM | TGI (T-47D breast): > 100 µM | TGI (CCRF-CEM leukemia): > 30.3 µM | TGI (IGROV1 ovarian): > 100 µM | TGI (786-0 renal): > 55.2 µM | TGI (NCI/ADR-RES ovarian): > 100 µM | TGI (UACC-62 melanoma): > 31.6 µM | TGI (NCI-H226 lung): > 100 µM | TGI (MDA-MB-231 breast): > 100 µM | TGI (OVCAR-3 ovarian): > 100 µM | TGI (OVCAR-5 ovarian): > 100 µM | TGI (SF-268 CNS): > 74.5 µM | TGI (A498 renal): > 92.5 µM | TGI (HCT-116 colon): > 100 µM | TGI (MCF7 breast): > 100 µM | TGI (HL-60(TB) leukemia): > 100 µM | TGI (HCC-2998 colon): > 100 µM | TGI (OVCAR-4 ovarian): > 100 µM | TGI (DU-145 prostate): > 100 µM | TGI (A549 NSCLC): > 100 µM | TGI (K-562 leukemia): > 31.6 µM | TGI (SK-MEL-28 melanoma): > 100 µM | TGI (UO-31 renal): > 100 µM | TGI (COLO 205 colon): > 100 µM | TGI (NCI-H522 lung): > 100 µM | TGI (PC-3 prostate): > 100 µM | TGI (SK-MEL-2 melanoma): > 100 µM | TGI (UACC-257 melanoma): > 100 µM | TGI (CAKI-1 renal): > 100 µM | TGI (ACHN renal): > 100 µM | TGI (MOLT-4 leukemia): > 93.5 µM | TGI (SK-MEL-5 melanoma): > 100 µM | TGI (EKVX NSCLC): > 100 µM | TGI (SW-620 colon): > 100 µM | TGI (U251 CNS): > 100 µM | TGI (HCT-15 colon): > 100 µM

N#CCCN(CCNc1ccccc1)C(=O)Nc1ccc(NC(=O)N(CCC#N)CCNc2ccccc2)cc1
TGI (NCI-H460 lung): > 100 µM | TGI (MDA-MB-435): > 100 µM | TGI (BT-549 breast): > 80.4 µM | TGI (MALME-3M melanoma): > 100 µM | TGI (HT29 colon): > 100 µM | TGI (LOX IMVI melanoma): > 100 µM | TGI (RPMI-8226 leukemia): > 100 µM | TGI (KM12 colon): > 100 µM | TGI (M14 melanoma): > 100 µM | TGI (MDA-N): > 100 µM | TGI (OVCAR-8 ovarian): > 100 µM | TGI (SF-295 CNS): > 100 µM | TGI (SNB-75 CNS): 72 µM | TGI (HOP-92 NSCLC): > 81.5 µM | TGI (TK-10 renal): 98 µM | TGI (NCI-H23 lung): > 100 µM | TGI (HS 578T breast): > 64.2 µM | TGI (SF-539 CNS): > 100 µM | TGI (SNB-19 CNS): > 100 µM | TGI (SN12C renal): > 100 µM | TGI (RXF 393 renal): > 83 µM | TGI (SK-OV-3 ovarian): > 100 µM | TGI (HOP-62 NSCLC): > 84.7 µM | TGI (T-47D breast): > 100 µM | TGI (786-0 renal): > 100 µM | TGI (NCI/ADR-RES ovarian): > 100 µM | TGI (UACC-62 melanoma): > 100 µM | TGI (NCI-H226 lung): > 100 µM | TGI (MDA-MB-231 breast): > 100 µM | TGI (OVCAR-3 ovarian): > 100 µM | TGI (OVCAR-5 ovarian): > 100 µM | TGI (SF-268 CNS): > 79.9 µM | TGI (A498 renal): > 100 µM | TGI (HCT-116 colon): > 100 µM | TGI (MCF7 breast): > 100 µM | TGI (HCC-2998 colon): > 100 µM | TGI (OVCAR-4 ovarian): > 31.6 µM | TGI (DU-145 prostate): > 100 µM | TGI (A549 NSCLC): > 100 µM | TGI (K-562 leukemia): > 100 µM | TGI (SK-MEL-28 melanoma): > 100 µM | TGI (UO-31 renal): > 100 µM | TGI (COLO 205 colon): > 100 µM | TGI (NCI-H522 lung): > 66.3 µM | TGI (PC-3 prostate): > 100 µM | TGI (SK-MEL-2 melanoma): > 100 µM | TGI (UACC-257 melanoma): > 100 µM | TGI (CAKI-1 renal): > 100 µM | TGI (ACHN renal): > 100 µM | TGI (MOLT-4 leukemia): > 100 µM | TGI (SK-MEL-5 melanoma): > 100 µM | TGI (EKVX NSCLC): > 100 µM | TGI (SW-620 colon): > 100 µM | TGI (U251 CNS): > 100 µM | TGI (HCT-15 colon): > 100 µM

Nc1ccc2nc3ccc(=O)cc-3n(-c3ccccc3)c2c1
TGI (NCI-H460 lung): > 100 µM | TGI (MDA-MB-435): > 100 µM | TGI (BT-549 breast): > 100 µM | TGI (MALME-3M melanoma): > 100 µM | TGI (HT29 colon): > 100 µM | TGI (RPMI-8226 leukemia): > 100 µM | TGI (KM12 colon): > 100 µM | TGI (M14 melanoma): > 100 µM | TGI (MDA-N): > 100 µM | TGI (OVCAR-8 ovarian): > 100 µM | TGI (SF-295 CNS): > 100 µM | TGI (SNB-75 CNS): 92.4 µM | TGI (HOP-92 NSCLC): > 100 µM | TGI (NCI-H23 lung): > 100 µM | TGI (HS 578T breast): > 100 µM | TGI (SF-539 CNS): > 100 µM | TGI (SNB-19 CNS): > 100 µM | TGI (SN12C renal): > 100 µM | TGI (RXF 393 renal): > 100 µM | TGI (SK-OV-3 ovarian): > 100 µM | TGI (HOP-62 NSCLC): > 100 µM | TGI (T-47D breast): > 100 µM | TGI (CCRF-CEM leukemia): > 100 µM | TGI (IGROV1 ovarian): > 100 µM | TGI (786-0 renal): > 100 µM | TGI (NCI/ADR-RES ovarian): > 100 µM | TGI (UACC-62 melanoma): > 100 µM | TGI (NCI-H226 lung): > 100 µM | TGI (MDA-MB-231 breast): > 100 µM | TGI (OVCAR-3 ovarian): > 100 µM | TGI (OVCAR-5 ovarian): > 100 µM | TGI (SF-268 CNS): > 100 µM | TGI (A498 renal): 85.7 µM | TGI (HCT-116 colon): > 100 µM | TGI (MCF7 breast): > 100 µM | TGI (HL-60(TB) leukemia): > 100 µM | TGI (HCC-2998 colon): > 100 µM | TGI (OVCAR-4 ovarian): > 100 µM | TGI (DU-145 prostate): > 100 µM | TGI (A549 NSCLC): > 100 µM | TGI (K-562 leukemia): > 100 µM | TGI (SK-MEL-28 melanoma): > 100 µM | TGI (UO-31 renal): > 100 µM | TGI (COLO 205 colon): > 100 µM | TGI (NCI-H522 lung): > 100 µM | TGI (PC-3 prostate): > 100 µM | TGI (SK-MEL-2 melanoma): > 100 µM | TGI (ACHN renal): > 100 µM | TGI (MOLT-4 leukemia): > 100 µM | TGI (SK-MEL-5 melanoma): > 100 µM | TGI (EKVX NSCLC): > 100 µM | TGI (SW-620 colon): > 100 µM | TGI (U251 CNS): > 100 µM | TGI (HCT-15 colon): > 100 µM
